From patent publication US20260021082A1, “EZH2 INHIBITION THERAPIES FOR THE TREATMENT OF AT-RICH INTERACTIVE DOMAIN-CONTAINING PROTEIN 1A (ARID1A) MUTATED CANCERS” (Constellation Pharmaceuticals, Inc., priority 2022, published 2026)
Where two headings read alike, the source gives them in different places.

Key:
[1] = test system: H3K27me3 levels in BFTC905 cells; experiment: H3K27me3 level, 3-day MSD ELISA; type: cell-based; conditions: Homo sapiens, BFTC-905, BFTC905, H3K27me3, 72 hours
Method: (§1) H3K27me3 and total H3 expression levels in cells and tumor tissues were analyzed by Meso Scale Discovery (MSD) ELISA. For assays with cultured cell lines, trypsinzed cells were counted using a Countess® cell counter (Life Technologies) and plated in 100 μL of cell culture medium onto 96-well tissue culture treated plates containing Compound 1 (9 concentrations in a series of 3-fold dilutions) and incubated at 37° C. in 5% CO2 for 24-96 hours, depending on the assay.
(§2) As with EZH2 inhibitors in other cancer cell line contexts, the cell viability effects in Compound 1 sensitive bladder cancer cell lines are time-dependent.

[2] = test system: H3K27me3 levels in KU1919 cells; experiment: H3K27me3 level, 3-day MSD ELISA; type: cell-based; conditions: Homo sapiens, KU-19-19, KU1919, H3K27me3, 72 hours
Method: as §1, §2

[3] = test system: H3K27me3 levels in VMCUB1 cells; experiment: H3K27me3 level, 3-day MSD ELISA; type: cell-based; conditions: Homo sapiens, VM-CUB-1, VMCUB1, H3K27me3, 72 hours
Method: as §1, §2

[4] = test system: H3K27me3 levels in HT1376 cells; experiment: H3K27me3 level, 3-day MSD ELISA; type: cell-based; conditions: Homo sapiens, HT-1376, HT1376, H3K27me3, 72 hours
Method: as §1, §2

[5] = test system: H3K27me3 levels in 639V cells; experiment: H3K27me3 level, 3-day MSD ELISA; type: cell-based; conditions: Homo sapiens, H3K27me3, 72 hours
Method: as §1, §2

[6] = test system: Colorectal Cancer PDX models, ARID1A mutated; experiment: PDX response rate (responder TGI > 50%); type: in vivo, mice
Method: (§3) Cell line derived xenograft tumor experiments were performed at WuXi AppTec, Shanghi, China. Patient derived xenograft experiments were performed at Crown BioScience Inc., Taicang Jiangsu Province, China, or Champions Oncology, Rockville, MD, US. All the procedures related to animal handling, care and the treatment in the xenograft studies were performed according to the guidelines approved by the Institutional Animal Care and Use Committee (IACUC) of WuXi AppTec or Crown BioScience Inc. following the guidance of the Association for Assessment and Accreditation of Laboratory Animal Care (AAALAC). The mice were kept in individual ventilation cages at constant temperature and humidity with 3-5 animals in each cage. Mice were checked daily for any effects of tumor growth and/or treatments on normal behavior such as mobility, food and water consumption, body weight gain/loss, eye, and any other abnormal effects. […] Animal body weight was monitored regularly as an indirect measurement of toxicity. Supplemented diet was provided after cell inoculation for all groups to help with body weight maintenance. If an animal lost >15% body weight, their treatments were suspended accordingly then resumed when body weight loss returned to <10%.
(§4) Tumor size was measured thrice weekly in two dimensions using a caliper, and the volume was expressed in mm3 using the formula: V=0.5a×b2 where a and b are the long and short diameters of the tumor, respectively. TGI was calculated for each group using the formula: TGI (%)=[1−(Ti−T0)/(Vi−V0)]×100; Ti is the average tumor volume of a treatment group on a certain day, T0 is the average tumor volume of the treatment group on the day of treatment start, Vi is the average tumor volume of the vehicle control group on the same day with Ti, and V0 is the average tumor volume of the vehicle group on the day of treatment start.
(§5) Next, we assessed in vitro and in vivo efficacy of Compound 1 in ARID1A LOF models of other solid cancers. […] Furthermore, comparative studies of ARID1A wild-type and ARID1A mutated PDX cancer models were performed (Table 6).

[7] = test system: Gastric Cancer PDX models, ARID1A wild-type; experiment: PDX response rate (responder TGI > 50%); type: in vivo, mice
Method: as §3, §4, §5

[8] = test system: Lung Cancer PDX models, ARID1A mutated; experiment: PDX response rate (responder TGI > 50%); type: in vivo, mice
Method: as §3, §4, §5

[9] = test system: Lung Cancer PDX models, ARID1A wild-type; experiment: PDX response rate (responder TGI > 50%); type: in vivo, mice
Method: as §3, §4, §5

[10] = test system: Gastric Cancer PDX models, ARID1A mutated; experiment: PDX response rate (responder TGI > 50%); type: in vivo, mice
Method: as §3, §4, §5

[11] = test system: Breast Cancer PDX models, ARID1A mutated; experiment: PDX response rate (responder TGI > 50%); type: in vivo, mice
Method: as §3, §4, §5

[12] = test system: Breast Cancer PDX models, ARID1A wild-type; experiment: PDX response rate (responder TGI > 50%); type: in vivo, mice
Method: as §3, §4, §5

[13] = test system: Colorectal Cancer PDX models, ARID1A wild-type; experiment: PDX response rate (responder TGI > 50%); type: in vivo, mice
Method: as §3, §4, §5

[14] = test system: H3K27me3 levels in HT1376 tumors; experiment: global H3K27me3 levels in HT1376 xenograft tumors; type: in vivo, mice; conditions: day 10, maintained at day 31
Method: Data represented as mean+SD, n=3 tumors per group. P-values calculated using unpaired Student's t-test, **p<0.01, ***p<0.0001.
Data points represent measurement from individual tumors sampled at given timepoint and error bars reflect the mean+SEM. Two tumors were assayed at day 12 and five were assayed at day 31. […] No data for 150 mg/kg at day 31 as tumors were too small for analysis.
as §1
To further explore the potential dose dependence of Compound 1 on tumor growth inhibition in vivo, HT1376 xenograft studies were carried out using Compound 1 doses from 10 to 150 mg/kg QD orally once daily (PO, QD).

[15] = average of replicates, read-out: EC50 (nM) 3-day MSD Avg
[16] = replicate 1, read-out: EC50 (nM) 3-day MSD Replicate 1
[17] = replicate 2, read-out: EC50 (nM) 3-day MSD Replicate 2
[18] = replicate 3, read-out: EC50 (nM) 3-day MSD Replicate 3
[19] = replicate 4, read-out: EC50 (nM) 3-day MSD Replicate 4

Q: `COC1CN([C@H]2CC[C@H]([C@@]3(C)Oc4c(Cl)cc(C(=O)NCc5c(SC)cc(C)[nH]c5=O)c(C)c4O3)CC2)C1` [Compound 1, (R)-7-chloro-2-((1r,4R)-4-(3-methoxyazetidin-1-yl)cyclohexyl)-2,4-dimethyl-N-((6-methyl-4-(methylthio)-2-oxo-1,2-dihydropyridin-3-yl)methyl)benzo[d][1,3]dioxole-5-carboxamide] was tested. Which EC50 [1, 15] did it give?
A: Its EC50 is 0.098 nM.

Q: What about the EC50 [1, 16] of the same compound?
A: Its EC50 is 0.1 nM.

Q: And the EC50 [1, 17]?
A: The EC50 was 0.096 nM.

Q: What about the EC50 [2, 15] of the same compound?
A: Its EC50 is 0.434 nM.

Q: What about the EC50 [2, 16] of the same compound?
A: The EC50 was 0.533 nM.

Q: And the EC50 [2, 17]?
A: The EC50 was 0.405 nM.

Q: And the EC50 [2, 18]?
A: The EC50 was 0.414 nM.

Q: What about the EC50 [2, 19] of the same compound?
A: Its EC50 is 0.383 nM.

Q: And the EC50 [3, 15]?
A: The EC50 was 0.149 nM.

Q: And the EC50 [3, 16]?
A: Its EC50 is 0.117 nM.

Q: And the EC50 [3, 17]?
A: Its EC50 is 0.18 nM.

Q: And the EC50 [4, 15]?
A: The EC50 was 0.151 nM.

Q: And the EC50 [4, 16]?
A: Its EC50 is 0.148 nM.

Q: What about the EC50 [4, 17] of the same compound?
A: The EC50 was 0.112 nM.

Q: What about the EC50 [4, 18] of the same compound?
A: Its EC50 is 0.127 nM.

Q: What about the EC50 [4, 19] of the same compound?
A: Its EC50 is 0.217 nM.

Q: What about the EC50 [5, 15] of the same compound?
A: Its EC50 is 0.076 nM.

Q: What about the EC50 [5, 16] of the same compound?
A: The EC50 was 0.065 nM.

Q: And the EC50 [5, 17]?
A: The EC50 was 0.086 nM.

Q: What about the “% responder” value [6] of the same compound?
A: Its value is 43%.

Q: And the “Responder (n out of x tested)” value [6]?
A: The value was 3/7.

Q: And the “% responder” value [7]?
A: The value was 22%.

Q: And the “Responder (n out of x tested)” value [7]?
A: The value was 2/9.

Q: What about the “% responder” value [8] of the same compound?
A: The value was 43%.

Q: What about the “Responder (n out of x tested)” value [8] of the same compound?
A: Its value is 3/7.

Q: What about the “% responder” value [9] of the same compound?
A: The value was 50%.

Q: And the “Responder (n out of x tested)” value [9]?
A: The value was 4/8.

Q: And the “% responder” value [10]?
A: Its value is 50%.

Q: What about the “Responder (n out of x tested)” value [10] of the same compound?
A: The value was 4/8.

Q: And the “% responder” value [11]?
A: The value was 83%.

Q: And the “Responder (n out of x tested)” value [11]?
A: Its value is 5/6.

Q: What about the “% responder” value [12] of the same compound?
A: The value was 38%.

Q: And the “Responder (n out of x tested)” value [12]?
A: The value was 3/8.

Q: And the “% responder” value [13]?
A: Its value is 63%.

Q: What about the “Responder (n out of x tested)” value [13] of the same compound?
A: Its value is 5/8.

Q: What about the “reduction of global H3K27me3 levels in HT1376 tumors” value ([14]; 10 mg/kg PO QD) of the same compound?
A: The value was ≥ 80%.

Q: And the “reduction of global H3K27me3 levels in HT1376 tumors” value ([14]; 25 mg/kg and higher doses PO QD)?
A: Its value is > 90%.
